Data on 16 compounds can be found in patent US9062048B2, “Cyclohexyl-azetidinyl antagonists of CCR2” (Janssen Pharmaceutica NV, priority 2010, dated 2015).

The experiment deals with CCR2 (Homo sapiens (Human), UniProt P41597). The experiment in a line: MCP-1 Receptor Binding Assay in THP-1 Cells.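 Also: THP-1 is a human monocytic cell line, and nonspecific binding was defined with 1 µM unlabeled MCP-1.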 The following applies: 0.5 nM 125I labeled MCP-1, 2 hours at 30° C., read-out: Inhibition of MCP-1 Binding IC50 MCP1B.
Sequence of CCR2 (P41597 whole entry): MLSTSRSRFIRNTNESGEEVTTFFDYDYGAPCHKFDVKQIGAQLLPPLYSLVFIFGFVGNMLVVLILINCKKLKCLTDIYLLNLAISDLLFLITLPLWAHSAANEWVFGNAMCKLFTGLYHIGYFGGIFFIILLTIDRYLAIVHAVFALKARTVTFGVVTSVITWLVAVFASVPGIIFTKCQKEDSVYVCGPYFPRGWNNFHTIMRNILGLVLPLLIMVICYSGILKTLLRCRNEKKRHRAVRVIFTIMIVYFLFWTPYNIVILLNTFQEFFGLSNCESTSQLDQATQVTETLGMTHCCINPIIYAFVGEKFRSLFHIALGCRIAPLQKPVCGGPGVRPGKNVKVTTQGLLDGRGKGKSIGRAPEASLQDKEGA

For the compound `CCC(NC(=O)N(C)C)[C@H]1CC[C@@H](N2CC(NC(=O)CNc3ncnc4ccc(C(F)(F)F)cc34)C2)CC1` (stereo partly drawn) [Example 143, N-(1-((1R,4s)-4-((S)-1-(3,3-dimethylureido)propyl)cyclohexyl)azetidin-3-yl)-2-((6-(trifluoromethyl)quinazolin-4-yl)amino)acetamide], the IC50 worked out at 13800 nM. `CCC(NC(=O)OC)[C@H]1CC[C@@H](N2CC(NC(=O)CNc3ncnc4ccc(C(F)(F)F)cc34)C2)CC1` (stereo partly drawn) [Example 144, methyl ((S)-1-((1s,4R)-4-(3-(2-((6-(trifluoromethyl)quinazolin-4-yl)amino)acetamido)azetidin-1-yl)cyclohexyl)propyl)carbamate]: the IC50 worked out at 640 nM. The value for `O=C(CNc1cnnc2ccc(C(F)(F)F)cc12)NC1CN([C@H]2CC[C@@](O)(c3cncs3)CC2)C1` [Example 147, N-(1-((1r,4r)-4-hydroxy-4-(thiazol-5-yl)cyclohexyl)azetidin-3-yl)-2-((6-(trifluoromethyl)cinnolin-4-yl)amino)acetamide] was 9.2 nM; that for `CC[C@H](O)[C@H]1CC[C@H](N2CC(NC(=O)CNc3nccc4ncc(C(F)(F)F)cc34)C2)CC1` [Example 151] was above 25000 nM; that for `CCC(O)[C@H]1CC[C@@H](N2CC(NC(=O)CNc3cnnc4ccc(C(F)(F)F)cc34)C2)CC1` (stereo partly shown) [Example 152, N-(1-(4-(1-hydroxypropyl)cyclohexyl)azetidin-3-yl)-2-(6-(trifluoromethyl)cinnolin-4-ylamino)acetamide] was 530 nM.

As for `CC[C@@H](O)[C@H]1CC[C@H](N2CC(NC(=O)CNc3nncc4ccc(C(F)(F)F)cc34)C2)CC1` [Example 154, N-(1-((1R,4r)-4-((R)-1-hydroxypropyl)cyclohexyl)azetidin-3-yl)-2-((7-(trifluoromethyl)phthalazin-1-yl)amino)acetamide], the IC50 amounted to 6080 nM. The figure for `CC(C)[C@@H](O)[C@H]1CC[C@H](N2CC(NC(=O)CNc3nccc4ncc(C(F)(F)F)cc34)C2)CC1` [Example 156, N-(1-((1R,4r)-4-((R)-1-hydroxy-2-methylpropyl)cyclohexyl)azetidin-3-yl)-2-((3-(trifluoromethyl)-1,6-naphthyridin-5-yl)amino)acetamide] is 430 nM; for `CC(C)C(O)[C@H]1CC[C@@H](N2CC(NC(=O)CNc3cnnc4ccc(C(F)(F)F)cc34)C2)CC1` (stereo partly drawn) [Example 157, N-(1-((1R,4s)-4-((S)-1-hydroxy-2-methylpropyl)cyclohexyl)azetidin-3-yl)-2-((6-(trifluoromethyl)cinnolin-4-yl)amino)acetamide] it is 530 nM; for `O=C(CNc1ncnc2ccc(C(F)(F)F)cc12)N[C@H]1C[C@@H](N2CCC(O)(c3cncs3)CC2)C1` [Example 161, N-((1s,3s)-3-(4-hydroxy-4-(thiazol-5-yl)piperidin-1-yl)cyclobutyl)-2-((6-(trifluoromethyl)quinazolin-4-yl)amino)acetamide] it is above 25000 nM. For the compound `O=C(CNc1ncnc2ccc(C(F)(F)F)cc12)N[C@H]1C[C@H](N2CCC(O)(c3cncs3)CC2)C1` [Example 162, N-((1r,3R)-3-(4-hydroxy-4-(thiazol-5-yl)piperidin-1-yl)cyclobutyl)-2-((6-(trifluoromethyl)quinazolin-4-yl)amino)acetamide], the IC50 is 1220 nM. For the compound `N#Cc1cc(NCC(=O)N[C@H]2C[C@@H](N3CCC(O)(c4cncs4)CC3)C2)c2cc(C(F)(F)F)ccc2n1` [Example 163, 2-((2-cyano-6-(trifluoromethyl)quinolin-4-yl)amino)-N-((1s,3s)-3-(4-hydroxy-4-(thiazol-5-yl)piperidin-1-yl)cyclobutyl)acetamide], the 50% inhibitory concentration (IC50) worked out at 2600 nM.

With `N#Cc1cc(NCC(=O)N[C@H]2C[C@H](N3CCC(O)(c4cncs4)CC3)C2)c2cc(C(F)(F)F)ccc2n1` [Example 164, 2-((2-cyano-6-(trifluoromethyl)quinolin-4-yl)amino)-N-((1r,3r)-3-(4-hydroxy-4-(thiazol-5-yl)piperidin-1-yl)cyclobutyl)acetamide], the concentration for half-maximal inhibition (IC50) is above 25000 nM. Consider `CC[C@@H](O)C1CCC(N2CC(NC(=O)CNc3nccc4ccc(C(F)(F)F)cc34)C2)CC1` (stereo partly drawn) [Example 167, N-(1-((1R,4s)-4-(1-hydroxypropyl)cyclohexyl)azetidin-3-yl)-2-((7-(trifluoromethyl)isoquinolin-1-yl)amino)acetamide], for which the IC50 stood at 44 nM. With `CC[C@H](O)C1CCC(N2CC(NC(=O)CNc3nccc4ccc(C(F)(F)F)cc34)C2)CC1` (stereo partly shown) [Example 168], the IC50 is above 25000 nM. For the compound `CC(C)C(O)[C@H]1CC[C@@H](N2CC(NC(=O)CNc3nccc4ccc(C(F)(F)F)cc34)C2)CC1` (stereo partly shown) [Example 169], the IC50 worked out at 35 nM.

On to `CCC(O)[C@H]1CC[C@@H](N2CC(NC(=O)CNc3nccc4ccc(C(F)(F)C(F)(F)F)cc34)C2)CC1` (stereo partly drawn) [Example 170, N-(1-((1R,4s)-4-(1-hydroxypropyl)cyclohexyl)azetidin-3-yl)-2-((7-(perfluoroethyl)isoquinolin-1-yl)amino)acetamide], for which the IC50 is 72 nM.

By IC50 is commonly meant the concentration at which inhibition is half-maximal.
